Values after ≈ are worked out from the molar mass of the structure shown.
Key:
Escherichia coli = test: Disco-diffuse method, antibacterial activity; assay type: cell-based; conditions: for zone of inhibition at 1000 µg/mL / zone of inhibition at 5000 µg/mL / zone of inhibition at 10000 µg/mL / zone of inhibition at 25000 µg/mL / zone of inhibition at 50000 µg/mL / MIC: Escherichia coli; for zone of inhibition at 1000 µg/mL: compound concentration 1 mg/mL; for zone of inhibition at 1000 µg/mL / zone of inhibition at 5000 µg/mL / zone of inhibition at 10000 µg/mL / zone of inhibition at 25000 µg/mL / zone of inhibition at 50000 µg/mL: read-out: The Zone of Growth Inhibition; for zone of inhibition at 5000 µg/mL: compound concentration 5 mg/mL; for zone of inhibition at 10000 µg/mL: compound concentration 10 mg/mL; for zone of inhibition at 25000 µg/mL: compound concentration 25 mg/mL; for MIC: from disc diffusion, 1-50 mg/mL, read-out: minimum inhibitory concentration
Description: (§1) The determination of compounds (I, IV, VI–XI) effect concerning microorganisms was carried out using test strains of Escherichia coli, Bacillus subtilis, and Candida tropicalis. They are not only natural inhabitants of natural biocenoses but also a part of human microbiocenosis. Used microorganisms of bacteria were selected as representatives of the Gram-positive and Gram-negative human microbiota. The antibacterial activity of compounds (I, IV, VI–XI) was studied by the disco-diffuse method. The strain culture was transferred sterile from the mown agar into test tubes with 5 mL of nutrient medium to obtain a “night culture” 12–15 h before the experiment. Beef-extract agar (BEA) was used as a nutrient medium for the development of bacterial cells, and Sabouraud’s medium was used for yeast. Bacterial cultures were incubated in a thermostat at 37 °C, and yeast cultures at 32 °C. The melted BEA was poured sterile into Petri dishes (diameter 90 mm) and evenly distributed over the bottom of the dish, covered with a lid, and left on the table until it solidified completely. Next, the dishes with BEA were inoculated with a “lawn” by introducing a strain culture (suspension titer −1–2 × 10^8 CFU/mL) in an amount of 500 µL and evenly distributing it with a sterile spatula. The dishes were left for 60–90 min to dry the culture. Compounds (I, IV, VI–XI) were previously dissolved, and the sequential dilutions were applied to disks. Dimethyl sulfoxide (DMSO) was used as a solvent for the DAA. Water was used as a solvent for their potassium salts. […] This disk was impregnated with a solution of the test compound amounting to 100 μL and incubated in the dark for 24 h at 37 °C (Escherichia coli and Bacillus subtilis) and 48 h at 32 °C (Candida tropicalis). The solution diffuses, forming a concentration gradient of the test compound around the disc. After the incubation period, the inhibition zone or stimulation of microbial growth around the disk was measured in the experimental and control samples. A conclusion was made about the degree (bactericidal) toxicity of compounds. Solvent-treated disks (DMSO) were used as controls. The experiments were performed three times.

Bacillus subtilis = test: Disco-diffuse method, antibacterial activity; assay type: cell-based; conditions: for zone of inhibition at 1000 µg/mL / zone of inhibition at 5000 µg/mL / zone of inhibition at 10000 µg/mL / zone of inhibition at 25000 µg/mL / zone of inhibition at 50000 µg/mL / MIC: Bacillus subtilis; for zone of inhibition at 1000 µg/mL: compound concentration 1 mg/mL; for zone of inhibition at 1000 µg/mL / zone of inhibition at 5000 µg/mL / zone of inhibition at 10000 µg/mL / zone of inhibition at 25000 µg/mL / zone of inhibition at 50000 µg/mL: read-out: The Zone of Growth Inhibition; for zone of inhibition at 5000 µg/mL: compound concentration 5 mg/mL; for zone of inhibition at 10000 µg/mL: compound concentration 10 mg/mL; for zone of inhibition at 25000 µg/mL: compound concentration 25 mg/mL; for MIC: from disc diffusion, 1-50 mg/mL, read-out: minimum inhibitory concentration
Description: as §1

Candida tropicalis = test: Disco-diffuse method, fungicidal activity; assay type: cell-based; conditions: Candida tropicalis, 48 h at 32 °C, read-out: The Zone of Growth Inhibition; for zone of inhibition at 1000 µg/mL: compound concentration 1 mg/mL; for zone of inhibition at 5000 µg/mL: compound concentration 5 mg/mL; for zone of inhibition at 10000 µg/mL: compound concentration 10 mg/mL; for zone of inhibition at 25000 µg/mL: compound concentration 25 mg/mL; for zone of inhibition at 50000 µg/mL: compound concentration 50 mg/mL
Description: as §1

[1] = test system: herpes simplex virus type 1 (HSV-1); design: method as in PMID 19892441; conditions: endpoint titration (EPTT); cited from earlier work
[2] = compound concentration 50 mg/mL, 24 h at 37 °C

Row | Compound | zone of inhibition at 1000 µg/mL (Escherichia coli; 24 h at 37 °C) | zone of inhibition at 5000 µg/mL (Escherichia coli; 24 h at 37 °C) | zone of inhibition at 10000 µg/mL (Escherichia coli; 24 h at 37 °C) | zone of inhibition at 25000 µg/mL (Escherichia coli; 24 h at 37 °C) | zone of inhibition at 50000 µg/mL (Escherichia coli; [2]) | MIC (Escherichia coli) | zone of inhibition at 1000 µg/mL (Bacillus subtilis; 24 h at 37 °C) | zone of inhibition at 5000 µg/mL (Bacillus subtilis; 24 h at 37 °C) | zone of inhibition at 10000 µg/mL (Bacillus subtilis; 24 h at 37 °C) | zone of inhibition at 25000 µg/mL (Bacillus subtilis; 24 h at 37 °C) | zone of inhibition at 50000 µg/mL (Bacillus subtilis; [2]) | MIC (Bacillus subtilis) | zone of inhibition at 1000 µg/mL (Candida tropicalis) | zone of inhibition at 5000 µg/mL (Candida tropicalis) | zone of inhibition at 10000 µg/mL (Candida tropicalis) | zone of inhibition at 25000 µg/mL (Candida tropicalis) | zone of inhibition at 50000 µg/mL (Candida tropicalis) | The Zone of Growth Inhibition (Escherichia coli; [2]) | The Zone of Growth Inhibition (Bacillus subtilis; [2]) | Concentration at which HSV-1 replication was reduced [1]
1 | CC(C)C1=CC2=CC[C@@H]3[C@](C)(CCC[C@@]3(C)C(=O)O)[C@H]2CC1 [IX, Abietic acid] | 0 mm | 1 ± 0.1 mm | 1 ± 0.1 mm | 2 ± 0.24 mm | 3 ± 0.14 mm | 5000 µg/mL (≈ 16.5 mM) | 1 ± 0.15 mm | 2.1 ± 0.03 mm | 2 ± 0.05 mm | 4 ± 0.1 mm | 5 ± 1.04 mm | 1000 µg/mL (≈ 3.31 mM) | 0 mm | 0 mm | 0 mm | 1 ± 0.11 mm | 1 ± 0.15 mm |  |  | 
2 | CC(C)c1cc2c(cc1Br)C1(C)CCCC(C)(C(=O)O)C1CC2 (centres unmarked) [X, 12-bromodehydroabietic acid] | 0.9 ± 0.1 mm | 2 ± 0.07 mm | 7.6 ± 0.03 mm | 4.6 ± 0.05 mm |  | 1000 µg/mL (≈ 2.64 mM) | 3.1 ± 0.25 mm | 9.5 ± 0.05 mm | 9.7 ± 0.04 mm | 10.5 ± 0.03 mm |  | 1000 µg/mL (≈ 2.64 mM) | 0 mm | 0 mm | 0 mm | 1.1 ± 0.24 mm | 1.9 ± 0.16 mm | Does not diff | Does not diff | 
3 | CC(C)C1=CC2=CCC3C(C)(CO)CCCC3(C)C2CC1 (centres unmarked) [XI, Abietinol] | 0 mm | 1 ± 0.1 mm | 1 ± 0.1 mm | 3.5 ± 0.21 mm | 5 ± 0.14 mm | 5000 µg/mL (≈ 17.3 mM) | 1 ± 0.15 mm | 2.2 ± 0.05 mm | 2 ± 0.15 mm | 4 ± 0.12 mm | 4 ± 0.09 mm | 1000 µg/mL (≈ 3.47 mM) | 0 mm | 1 ± 0.1 mm | 2 ± 0.1 mm | 4 ± 0.25 mm | 4.2 ± 0.15 mm |  |  | 
4 | CC(=O)OC[C@]1(C)CCC[C@]2(C)c3ccc(C(C)C)cc3CC[C@@H]12 [dehydroabietinol acetate] |  |  |  |  |  |  |  |  |  |  |  |  |  |  |  |  |  |  |  | below 100 mg/mL
5 | CC(C)c1ccc2c(c1)CC[C@H]1[C@](C)(COC(=O)c3ccccc3)CCC[C@]21C [dehydroabietinol benzoate] |  |  |  |  |  |  |  |  |  |  |  |  |  |  |  |  |  |  |  | below 100 mg/mL
